From PMC8405639, “2-Carba-lysophosphatidic acid is a novel β-lysophosphatidic acid analogue with high potential for lysophosphatidic acid receptor activation and autotaxin inhibition” (Scientific Reports, 2021)

Key:
[1] = molecular target: T1, hLPA6 (Homo sapiens, UniProt P43657); assay: TGFα-shedding assay, LPA6; assay type: cell-based; conditions: 293A cells, AP-TGFα release; for EC50: 1 h; for Emax: read-out: Emax ± SEM hLPA6 (converted)
T1 construct: expressed in transfected cells; host or cells: 293A cells
T1 sequence (P43657 1-344): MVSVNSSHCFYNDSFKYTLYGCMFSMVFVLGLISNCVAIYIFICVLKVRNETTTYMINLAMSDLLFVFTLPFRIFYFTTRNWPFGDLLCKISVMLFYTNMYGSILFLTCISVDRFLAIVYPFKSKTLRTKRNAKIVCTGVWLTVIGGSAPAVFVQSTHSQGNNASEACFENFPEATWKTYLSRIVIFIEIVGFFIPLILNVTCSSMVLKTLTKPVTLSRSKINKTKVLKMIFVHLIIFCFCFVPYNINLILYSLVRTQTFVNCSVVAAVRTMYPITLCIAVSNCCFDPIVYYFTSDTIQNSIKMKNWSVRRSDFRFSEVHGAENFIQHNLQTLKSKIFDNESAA
Procedure: 293A cells expressing LPA receptors were stimulated with the indicated concentration of LPA, 2carbaLPA, and cPA analogues. Receptor-specific alkaline phosphatase-tagged transforming growth factor-α release was calculated by subtracting the responses in the empty vector-transfected cells from those in the receptor-expressing cells. Data are represented as standard error of the mean of three independent replicates.
293A cells (Life Technologies, Tokyo, Japan) were cultured in DMEM (Nissui Pharmaceutical, Tokyo, Japan) supplemented with 10% foetal calf serum (Gibco, Waltham, MA, USA) in an incubator at 37 °C and 5% CO2. This assay was conducted according to a modified version of a method described previously. […] The cells were co-transfected with vectors-expressing human LPA1–6, alkaline phosphatase-tagged TGFα (AP-TGFα). As negative controls, cells transfected with an empty vector instead of the receptor-expressing vector were used. After 24 h, the cells were resuspended in Hank’s balanced salt solution (HBSS), seeded in 96-well plates, and stimulated with cPA analogues administered at tenfold concentration of the final concentration. The cPA analogues were diluted with HBSS, 0.01% protease and fatty acid-free BSA (SERVA Electrophoresis GmbH, Heidelberg, Germany). Cells for LPA4, LPA5, and LPA6 analysis were treated with Ki16425 (final concentration: 10 μM), 5 min before treatment with the cPA analogues. After incubation for 1 h at 37 °C, 80 µL of the supernatant was transferred to fresh 96-well plates. An equal volume of 1 mM p-NPP solution [120 mM Tris–HCl (pH 9.5), 40 mM NaCl, and 10 mM MgCl2] was added to both the supernatant and the cells. Alkaline phosphatase activity was calculated by measuring absorbance at 405 nm using the Cytation 3 plate reader (BioTek, Winooski, VT, USA).

[2] = 2carbaLPA detection in rat plasma after oral 2ccPA capsule; assay type: in vivo; conditions: oral gastro-resistant (entero-soluble) capsule of 2ccPA, 0-10 h
Source text: Supplementary Figure S5. 2-carba-lysophosphatidic acid (2carbaLPA) produced in rat plasma from rats administered 2-carba-cyclic phosphatidic acid (2ccPA) as a gastro-resistant capsule. Rats were orally administered with 2ccPA containing capsule and 2carbaLPA produced in plasma was detected using liquid chromatography with tandem mass spectrometry (LC-QqQ) and presented as peak area (counts). Data are represented as mean ± standard deviation (n = 5 rat samples).
Preparation of 2ccPA intended to be administered as a gastro-resistant capsule, administration of the prepared 2ccPA in rats, and extraction of lipids from plasma samples were performed as per previously described methods^1. The experimental protocols were approved by the Animal Research Committee of the Saitama Medical University (approval number; 2113). Briefly, each capsule was filled with 19.70 ± 1.39 mg of 2ccPA and enteric-coated. Male 7-week-old Sprague Dawley rats were orally administrated with a single capsule and blood was collected from the jugular vein using a catheter from 0 to 10 h. Plasma was obtained by mixing with EDTA-Na2 (1 mg/mL), and the lipid fraction was extracted by adding acidic methanol, including LPA 17:0 (final concentration: 100 nM; Avanti Polar Lipids) as internal standard. Analysis for detection of 2carbaLPA with LC-QqQ was performed as above.

[3] = molecular target: T2, human recombinant ATX (Homo sapiens, UniProt Q13822); assay: Hydrolysis of cPA analogues by ATX (LC-QqQ); assay type: biochemical; conditions: substrate 10 µM, ATX 50 nM, 37 °C, time-dependent
T2 construct: purchased Cayman Chemical
Procedure: Analyses of LPA from cPA, 2carbaLPA from 2ccPA, and 3carbaLPA from 3ccPA were performed using LC-QqQ as per methods described previously. cPA 18:1, or 2ccPA 18:1 and 3ccPA 18:1 mixture as substrate (10 μM each) were incubated at 37 °C for 2 h with human recombinant ATX (final concentration: 50 nM) and subjected to LC-QqQ. 2carbaLPA and 3carba LPA were both detected in the negative ion mode with selected reaction monitoring (SRM) of the transition from m/z 433.27 to m/z 151.02. To separate α-LPA and the predicted β-LPA or 2carbaLPA and 3carbaLPA, LC method was performed as per previously described protocols with some modifications. Briefly, the UHPLC PEEK Inertsil ODS-3 C18 column (3 µm, 2.1 × 150 mm; GL Sciences, Tokyo, Japan) was used and the compounds were eluted with a gradient solvent system: solvent A (5 mM ammonium formate in water containing 0.0096% formic acid, pH 4.0), solvent B (5 mM ammonium formate in 95% acetonitrile/5% water containing 1.16% formic acid, pH 4.0). The analytical procedure commenced with solvent B 55% for 10 min, followed by a linear gradient 85% for 40 min that was maintained at 85% for 15 min. […] The flow rate was 0.2 mL/min at a column temperature of 40 ℃. The injection volume was 10 µL/sample.
Supplementary Figure S4. Lysophosphatidic acid (LPA) produced from cyclic phosphatidic acid (cPA), 2-carba-lysophosphatidic acid (2carbaLPA) produced from 2-carba-cyclic phosphatidic acid (2ccPA) and 3-carba-lysophosphatidic acid (3carbaLPA) produced from 3-carba-cyclic phosphatidic acid (3ccPA) by autotaxin (ATX). (a) cPA 16:0, (b) 2ccPA or (c) 3ccPA (final concentration: 10 µM each) was incubated with or without human recombinant ATX (50 nM final concentration) at 37°C. The amount of produced (a) LPA 16:0, (b) 2carbaLPA or (c) 3carbaLPA was detected using liquid chromatography with tandem mass spectrometry (LC-QqQ) and presented as peak area (counts). Data are represented as mean ± standard deviation of experiments conducted in duplicate. […]

[4] = system: LPA3; conditions: Ca2+ mobilization, RH7777 and CHO cells, less than 2 min incubation ref 17; cited from earlier work

| Compound | EC50 ([1]; with Ki16425 10 μM) | Emax [1] | 2carbaLPA in plasma after administration of 2ccPA [2] | Hydrolysis by ATX [3] | EC50 ([1]; bound) | Activity relative to LPA (times weaker), LPA3 [4] |
| --- | --- | --- | --- | --- | --- | --- |
| CCCCCCCC/C=C\CCCCCCCC(=O)OCC(CO)CP(=O)(O)O (stereo not drawn) [2carbaLPA 18:1, 2-carba-lysophosphatidic acid] | 90.9 nM | 29.3% | detectable |  |  |  |
| CCCCCCCC/C=C\CCCCCCCC(=O)OC[C@@H](O)CCP(=O)(O)O [3carba LPA 18:1, 3-carba-lysophosphatidic acid] | 132 nM | 27.1% |  |  |  | more than 10 times |
| CCCCCCCC/C=C\CCCCCCCC(=O)OC[C@@H]1CCP(=O)(O)O1 [3ccPA 18:1, 3-carba-cyclic phosphatidic acid] |  |  |  | hydrolysed to 3carbaLPA by ATX | > 3000 nM |  |

More lines, main results first:

| EC50 ([1]; with Ki16425 10 μM) | Emax [1] | 2carbaLPA in plasma after administration of 2ccPA [2] | Hydrolysis by ATX [3] | EC50 ([1]; bound) | Compound | Activity relative to LPA (times weaker), LPA3 [4] |
| --- | --- | --- | --- | --- | --- | --- |
|  |  |  | 2ccPA to 2carbaLPA | > 3000 nM | CCCCCCCC/C=C\CCCCCCCC(=O)OCC1COP(=O)(O)C1 (stereo not drawn) [2ccPA 18:1, 2-carba-cyclic phosphatidic acid] |  |
|  |  |  | hydrolyses cPA to LPA | > 3000 nM | CCCCCCCC/C=C\CCCCCCCC(=O)OC[C@@H]1COP(=O)(O)O1 [cPA 18:1, 1-Oleoyl-cPA] |  |
